Test results: patent US20010019832A1, “Methods for identification using U0126” (priority 2000, published 2001)

Experiments:
L6 cells [1] = experiment: Glucose uptake rate in L6 cells; format: cell-based, rat; conditions: 5 mM glucose; for Glucose uptake rate: U0126 10 μM or PD98059 10 μM for 20 h, insulin 176 nM 1 h before
Description: (§1) Glucose uptake was determined as described by Hundal et al. (1994) Biochem. J. 297: 289-295. Briefly, after incubation with insulin for one hour, cell monolayers were rinsed with glucose-free PBS. Glucose uptake was quantified by incubating the cells in the presence of 1 μCi/ml ^3H-2-deoxy-glucose in PBS for 8 min. Uptake of 2-deoxy-glucose was terminated by rapidly aspirating the medium, followed by two successive washes of cell monolayers with ice cold PBS. The cells were lysed in 0.5 M NaOH, followed by liquid scintillation counting. Rates of transport were normalized for protein content in each well.
Glucose uptake rate in L6 cells, in the presence of 5 mM glucose, was determined. The cells were incubated in serum-free medium supplemented with U0126 (10 μM), PD98059 (10 μM) or wortmannin (100 nM) for 20 h. Insulin (176 nM) was added 1 h before the determination of glucose uptake rate. Glucose uptake was determined as described above.

SH-SY5Y cells = experiment: Glucose uptake rate in SH-SY5Y cells; format: cell-based, human; conditions: 5 mM glucose, U0126 10 μM or insulin 176 nM added 1 h before
Description: as §1
Glucose uptake rate in SH-SY5Y cells in the presence of 5 mM glucose was determined. The cells were incubated in serum-free medium over night. Approximately 20 h later U0126 (10 μM), wortmannin (100 nM) or insulin (176 nM) were added, 1 h before the determination of glucose uptake rate.

L6 cells [2] = experiment: Palmitate oxidation in L6 cells (14CO2 trapping); format: cell-based, rat; conditions: for Palmitate oxidation in the presence of 5 mM glucose: data not shown
From the text: (§2) The principle of the used glucose/free fatty acid, (FFA) oxidation assay is based on the fact that one of the final products along metabolic pathways of these two substrates is carbon dioxide. Since the substrates are uniformly ^14C labeled, the radioactivity in carbon dioxide trap is a direct measure of metabolic activity in studied cells (Rodbell, M. (1964) J. Biol. Chem. 239: 375-380).
(§3) As further described in International Patent Application No. PCT/SE00/02680, filed Dec. 27, 2000, cells were cultivated until sub-confluence in T-25 Costar flasks. Prior to the experiment, the cells were deprived of serum for 6 hours in DMEM medium containing 5 mM glucose. 3 ml of medium supplemented with (U-^14C)-glucose or (U^14C)-palmitic acid (0.2 μCi/ml) were added to each flask. A filter paper (1.5×5.5 cm) soaked in hyamine solution was rolled up, blotted on a paper towel to remove excess of fluid, and placed carefully into the tube of the device described in International Patent Application No. PCT/SE00/02680. The tube was mounted in the flasks, the screw caps were tightened and cells were incubated at 37° C. for a suitable time period. The reaction was terminated by adding sulfuric acid to the culture medium and the cells were incubated for additional 60 min. The filter paper was removed, cut into small pieces and transferred to scintillation vials. Methanol (0.2 ml) was added to each vial to increase the solubility of hyamine-CO2 in the scintillation fluid. Finally the radioactivity was measured. The remaining cells were washed briefly with ice cold PBS, solubilized with 1 M KOH and the protein content was determined by the Bradford method (Bradford, M. M. (1976) Anal. Biochem. 72: 248-254).
In a cell system, insulin resistance can be provoked experimentally by raising the concentrations of glucose, fat or both in the medium, or by treating the cells with the cytokine Tumor Necrosis Factor alpha (TNF alpha) before insulin stimulation. […] Palmitate oxidation was determined as described in “Experimental methods”. […]

PKB = PKB activity in L6 cells; format: cell-based, rat; conditions: differentiated L6 cells, incubated 10 min
[3] = tested on: human skeletal muscle cells (hSkMC); experiment: Glucose uptake rate in human skeletal muscle cells; format: cell-based; conditions: 5 mM glucose, insulin 176 nM or U0126 10 μM added 30 min before
Description: as §1
Glucose uptake rate in human skeletal muscle cells (hSkMC), in the presence of 5 mM glucose, was determined. The cells were incubated in serum-free medium (PromoCell) for 2 h. Insulin (176 nM) or U0126 (10 μM) were added 30 min before determination of glucose uptake rate.

L6 cells [4] = experiment: Glucose oxidation in L6 cells (14CO2 trapping); format: cell-based, rat; conditions: 5 mM glucose; for Glucose oxidation: insulin 176 nM or U0126 10 μM added 1 h before
From the text: as §2, §3
Glucose oxidation in L6 cells in the presence of 5 mM glucose was determined as described in “Experimental Methods”. One hour prior to determination of glucose oxidation, insulin or U0126 was added to a concentration of 176 nM or 10 μM, respectively.

AP-1 = conditions: Duncia et al. 1998; cited from earlier work
MEK½ = conditions: Favata et al. 1998; cited from earlier work
INS-1 cells = conditions: U0126 10 μM, 24 hours
Description: Insulin secretion in INS-1 cells was determined. INS-1 cells were seeded in 24-well plates. Thirty minutes before assay the glucose concentration was decreased to 2.8 mM. After the incubation in low glucose medium, glucose (up to 16 mM) or U0126 (10 μM) were added. After 24 hours, samples were collected and analyzed in the rat insulin ELISA.

insulin: Bovine insulin purchased from Gibco Laboratories
Glucose uptake rate (L6 cells [1]): increased glucose uptake | Glucose uptake rate (SH-SY5Y cells): increased glucose uptake | Palmitate oxidation in the presence of 5 mM glucose (L6 cells [2]): decreased palmitate oxidation | PKB activity (PKB): increased PKB activity three-fold | Glucose uptake rate [3]: increase glucose uptake | Glucose oxidation (L6 cells [4]): increased glucose oxidation

N#CC(=C(N)Sc1ccccc1N)C(C#N)=C(N)Sc1ccccc1N [U0126, 1,4-diamino-2,3-dicyano-1,4-bis [2-aminophenylthio] butadiene]
Inhibition of AP-1 transactivation (AP-1): inhibitor of AP-1 transactivation | Glucose uptake rate, U0126 and insulin incubated together (L6 cells [1]; U0126 10 μM 20 h plus insulin 176 nM 1 h): no further increase compared to U0126 alone | Glucose uptake rate (L6 cells [1]): increased glucose uptake | Glucose uptake rate (SH-SY5Y cells): increased glucose uptake | Palmitate oxidation in the presence of 5 mM glucose (L6 cells [2]): decreased palmitate oxidation | Palmitate oxidation during insulin resistant conditions (L6 cells [2]; 12 mM glucose and 480 μM palmitate for 20 hours, U0126 10 μM 1 h before): decreased palmitate oxidation | PKB activity (PKB): no effect | Inhibition of MEK½ (MEK½): specifically inhibits MEK½ in both the inactive and active forms | Glucose uptake rate [3]: increase glucose uptake | Insulin secretion (INS-1 cells): increased insulin secretion | Glucose oxidation, U0126 and insulin incubated together (L6 cells [4]; U0126 10 μM plus insulin 176 nM): A small increase | Glucose oxidation (L6 cells [4]): increased glucose oxidation
